Holding throughout (assay type): cell-based
For assay [1], the system named is intracellular cAMP in MCF7 breast cancer cells. Nature of the assay: cAMP levels in breast cancer cells (sandwich ELISA). The conditions noted are these: 30 minutes, final peptide concentration 10^−9M, Forskolin 1 micromolar. How it is done:
Enzyme linked sandwich immunosorbent assay was carried out on breast cancer cells (MCF7) to study the modulation in levels of cAMP upon treatment with the peptides and their combinations. The cells were cultured in sterile 6 well plates at a density of 0.5×10^6/well in DMEM supplemented with 10% FCS, and allowed to adhere overnight.
The cells were co-incubated with Forskolin at a concentration of 1 micromolar. The cells were scraped using a cell scraper and pelleted. The cell pellet was suspended in appropriate resuspension buffer (50 mM Tris, containing EDTA, 0.2 mM phenyl methyl sulfonyl fluoride (PMSF), 1 ug/ml pepstatin and 0.5 microgram/ml leupeptin adjusted to pH 7.4). The cell extracts were transferred to microcentrifuge tubes and centrifuged for 5 minutes at 10000×g. cAMP standards ranging in concentrations from 200 units/ml to 0 units/ml were prepared immediately prior to the start of the assay. Fluorescein isothiocyanate (FITC) conjugated monoclonal antibody directed to cAMP was added to microtitre wells precoated with primary monoclonal antibody against cAMP. 50 ul of sample lysates, and cAMP standards were added in duplicates in the microtitre wells containing both the monoclonals to cAMP. The wells were incubated at room temperature for 2 hours. The microtitre wells were washed three times with appropriate wash buffer (PBS 50 mM, with Tween 0.5%) and the appropriate dilution of anti FITC horse radish peroxidase conjugate was added and incubated for 30 minutes. The microtitre wells were washed thrice with the wash buffer and subsequently with distilled water. Tetra-methylbenzidine was added to each well and incubated in dark for 30 minutes at room temperature. The absorbance was measured in each well at dual wavelength of 450/595 nm within 30 minutes of the addition of stop solution and the amount of cAMP present in the cell samples calculated.

Assay [2] relates to tyrosine phosphatase in MiaPaCa2 cells. The assay is described as follows: Tyrosine phosphatase activity in pancreatic cancer cells (colorimetric). The note with it: 30 minutes, final peptide concentration 10^−9M. The procedure: The quantitation of tyrosine phosphatase was carried out colorimetrically by using their synthetic biotin labeled tyrosine phosphorylated peptide substrates. The enzyme reaction was quenched by the addition of a specific inhibitor, and the phosphorylated and dephosphorylated substrate is immobilized by binding to the streptavidin coated microtitre plate. The fraction of the unmetabolized substrate is determined by its anti phospho tyrosine antibody directly conjugated to peroxidase.
The cells were cultured in sterile 6 well plates at a density of 0.5×10^6/well in DMEM supplemented with 10% FCS, and allowed to adhere overnight. The medium was changed to DMEM. The cells were treated with appropriate concentrations of the peptide and their combinations shown in Table 6, for 30 minutes, such that in each case the final peptide concentration was 10^−9M.
The cells were lysed in appropriate lysis buffer (50 mM Tris, containing EDTA, 0.2 mM PMSF, 1 microgram/microliter pepstatin and 0.5 microgram/microliter leupeptin adjusted to pH 7.4). […]
The quantitation of phosphatase enzyme activity was performed with 30 microliter of specific substrates and the reaction was quenched with the addition of 100 micromolar sodium orthvanadate. […] After 3 washings, 100 microliter of the substrate POD was added to the wells, and the absorbance was read at 405 nm.

The test system of another assay is Caspase-3. Nature of the assay: Caspase-3 induction (DEVD-pNA colorimetric) in cancer cells. The conditions noted are these: each peptide 10^−8M, 6 hours. The procedure:
PA-1 (Ovary), MDA.MB.453 (breast), HT29 (colon) and A549 (lung) cancer cells were cultured in 25 cm^2 tissue culture flasks at 37° C. in a humidified incubator containing 5% CO2. When cultures reached pre-confluence individual peptides of the combination and different combinations of the peptides as shown in Table 8 were added to different flasks such that the final concentration of each peptide in the flask was 10^−8M. The untreated flasks served as controls. The cells were incubated with drug for 6 hours.
After 6 hours of incubation cells were collected by trypsin treatment followed by centrifugation at 2000 r.p.m. for 10 minutes. The supernatant was gently removed and discarded and Lysis Buffer was added to the cell pellet (25 microliter of lysis buffer per 1×10^4 cells I a 15 ml conical tube) and incubated on ice for 10 minutes and centrifuged at 10,000-×g for 1 minute. 50 microliter of supernatant (cell lysate) was transferred to the wells of a 96-well plate. 2× Reaction buffer was prepared by adding 10 microliter of fresh DTT stock per 1 ml of 2× Reaction Buffer. 50 micro liter 2× Reaction Buffer was added to each well followed by addition of 5 micro liter of Caspase-3 colorimetric substrate (DEVD-pNA). The plate was incubated for 1-2 hours at 37° C. Following incubation the plate was read on a microplate reader at 405 nm-wavelength light the level of caspase enzymatic activity in the cell lys ate was directly proportional to the color reaction. The induction of caspase activity by the subcombinations was calculated as a percentage of control using the formula [(Sample OD/Control OD)−1]*100.

Non-standard residues stand in square brackets, D forms with d. Residues, ends and D or L forms follow the SMILES beside them. No end group written: not given here. Ac5c = NC1(C(=O)O)CCCC1; Aib = CC(C)(N)C(=O)O

The results in this text go back to patent US7781398B2, “Drug comprising synthetic peptide analogs for the treatment of cancer” (Dabur Pharma Ltd., priority 2002, dated 2010).

As for `CC(C)C[C@H](NC(=O)[C@@H](Cc1c[nH]c2ccccc12)NC(=O)[C@H](Cc1ccccc1)NC(=O)[C@@H](Cc1c[nH]c2ccccc12)NC(=O)[C@H](CCC(N)=O)NC(=O)[C@@H](Cc1ccccc1)NC(=O)[C@@H]1CCCN1C(=O)[C@H](CCCCN)NC(=O)[C@@H]1CCCN1C(=O)[C@H](N)CCCNC(=N)N)C(=O)NC1(C(N)=O)CCCC1` [SEQ ID NO: 3, D-Arg-Pro-Lys-Pro-D-Phe-Gln-D-Trp-Phe-D-Trp-Leu-Ac5c-NH2] (H-[dR]PKP[dF]Q[dW]F[dW]L[Ac5c]-NH2; N-terminus assumed), the “cAMP (% Of Control)” value in assay [1] came out at 13.3 ± 4.0 % Of Control. Moreover, in assay [2], the “% Induction of Tyrosine phosphatase” value is on record as 14.3 ± 3.5%. In addition, the “Caspase-3 % INDUCTION” value is 38.5 ± 3.8% with Caspase-3 (A549), 28.4 ± 2.4% in the assay with Caspase-3 (HT29), 22.8 ± 3.8% with Caspase-3 (MDA.MB453) and 46.2 ± 2.1% in the assay with Caspase-3 (PA-1).

As for `C[C@@H](O)[C@H](NC(=O)[C@H]1NC(=O)[C@H]([C@@H](C)O)NC(=O)[C@H](CCCN)NC(=O)[C@@H](Cc2c[nH]c3ccccc23)NC(=O)[C@H](Cc2ccc(O)cc2)NC(=O)[C@@H](NC(=O)[C@H](N)Cc2ccccc2)CSSC1(C)C)C(N)=O` [SEQ ID NO: 4, D-Phe-Cys-Tyr-D-Trp-Orn-Thr-Pen-Thr-NH2], in assay [1], the “cAMP (% Of Control)” value stood at 12.9 ± 5.0 % Of Control. In addition, the “% Induction of Tyrosine phosphatase” value in assay [2] is recorded as 15.6 ± 4.5%. The “Caspase-3 % INDUCTION” value came to 28.4 ± 2.8% with Caspase-3 (A549), 18.6 ± 1.9% with Caspase-3 (HT29), 18.9 ± 1.0% with Caspase-3 (MDA.MB453) and 34.8 ± 1.3% in the assay on Caspase-3 (PA-1).

Consider `CC(C)C[C@H](NC(=O)[C@H](Cc1c[nH]cn1)NC(=O)C(C)(C)NC(=O)[C@@H](NC(=O)[C@H](C)NC(=O)[C@H](Cc1c[nH]c2ccccc12)NC(=O)[C@H](CCC(N)=O)NC(=O)[C@H](N)Cc1ccccc1)C(C)C)C(N)=O` [SEQ ID NO: 2, D-Phe-Gln-Trp-Ala-Val-Aib-His-Leu-NH2] (H-[dF]QWAV[Aib]HL-NH2; N-terminus assumed), for which the “cAMP (% Of Control)” value in assay [1] is given as 15.4 ± 3.0 % Of Control.

As for “LMYPTYLK-OH [SEQ ID NO: 1, Leu-Met-Tyr-Pro-Thr-Tyr-Leu-Lys-OH]”, the “cAMP (% Of Control)” value in assay [1] is given as 25.2 ± 4.5 % Of Control.
